What all share (type): in vivo
In one experiment the test system is wnt activity. Kind of experiment: wnt activity in TOP:dGFP wnt reporter zebrafish embryos (in situ hybridization and qPCR for GFP). The conditions noted are these: for wnt activity in the developing brain, liver and gut: developing zebrafish, TOP:dGFP. The text has this:
An embodiment of the present invention provides for manipulation of the genetic interaction between PGE2 and wnt/β-catenin signaling, which regulates developmental specification of stem cells and regeneration. Briefly, prostaglandin (PG) E2 is required for the formation and function of hematopoietic stem cells (HSCs) in vivo, yet its mechanism of action in these cells is not completely understood.
The following RNA probes were used to detect alterations in endodermal and liver development: GFP, LFABP, sterol carrier protein, transferrin, foxA3, insulin, trypsin, and IFABP. Changes in expression compared to wild-type controls are reported as the # altered/# scored per genotype; a minimum of three independent experiments were conducted per analysis.

Experiment [1] relates to hematopoietic stem cells (HSCs). Kind of experiment: HSC formation in zebrafish embryos (runx1, c-myb expression), with heat-shock inducible wnt modulators. How it is done: The functional consequences of the PGE2/wnt interaction in HSC formation during embryonic development were analyzed by examining the expression of the HSC markers runx1 and c-myb. Heat shock induction of a canonical wnt ligand, wnt8, at ten somites led to enhanced HSC formation at 36 hours post fertilization (hpf; 47/54). When wnt8 induction was followed by exposure to indomethacin (10 μM, 16-36 hpf) HSC formation was reduced to or below wild-type levels ( 43/46).
Inducible negative regulators of wnt activity were used in combination with dmPGE2 treatment to functionally localize the interaction between the PG and wnt pathways. Dkk1 antagonizes the wnt pathway at the level of membrane binding and the initiation of the wnt signaling cascade. Dkk induction in hs:dkk1 transgenic embryos inhibited HSC development ( 34/49). Exposure to exogenous dmPGE2 rescued the dkk1-mediated effect on HSC formation ( 28/51, 10 μM, 16-36 hpf). Axin is a central component of the β-catenin destruction complex and thus a negative regulator of the wnt signaling cascade in the cytosolic compartment. […] Similarly, a dominant-negative form of the β-catenin transcriptional co-activator TCF abolished HSC formation ( 60/62), and no rescue was affected via dmPGE2 exposure.
The wnt pathway can actively enhance HSC proliferation through signaling from the HSC niche as well as within HSCs themselves. PGE2 regulates HSC formation at the level of the vascular niche as well as within the HSCs. North et al., 2007. In order to identify transcriptional programs regulated by the wnt signaling pathway, genes involved in HSC development were analyzed by qPCR.
The functional interaction of signaling processes in the zebrafish, down stream from PG, was explored by increasing camp production using forskolin and inhibiting PKA with H89. […] Furthermore, the rescue of dkk effects by dmPGE2 was eliminated by H89.
Heat shock activation/repression of wnt signaling: Embryonic heat-shock experiments were conducted at 38° C. for a duration of 20 minutes unless otherwise noted. Genotype was determined by the presence of GFP fluorescence at three hours post heat-induction, non-fluorescence (wild-type) siblings were used as controls.
(§1) In situ hybridization: Paraformaldehyde (PFA)-fixed embryos were processed for in situ hybridization using standard zebrafish protocols such as those found on the internet at, for example, ZFIN: The Zebrafish Model Organism Database (hosted by the Univ. Oregon, Eugene, Oreg.). The following RNA probes were used to detect alterations in endodermal and liver development: GFP, LFABP, sterol carrier protein, transferrin, foxA3, insulin, trypsin, and IFABP. Changes in expression compared to wild-type controls are reported as the # altered/# scored per genotype; a minimum of three independent experiments were conducted per analysis.

In experiment [2] the test system is endodermal and hepatic progenitor cells. Kind of experiment: endodermal progenitors (foxA3) and liver size (lfabp) in zebrafish embryos, in situ hybridization.
Description: To determine whether the interaction of PGE2 and wnt/β-catenin signaling is a conserved regulator of stem and progenitor cell populations in other tissues, endodermal and hepatic progenitor cells were examined during zebrafish development. […] ( 51/56), as detected by expression of liver fatty acid binding protein (lfabp). […] This finding is supported by the detection of various components of PGE2 signaling in foxA3 positive cells.
The APC mutant zebrafish to model constitutive activation of the wnt signaling pathway, was used to characterize the effects of the wnt/PG interaction in foxA3+ endodermal progenitors at 48 hpf. APC+/− embryos have enhanced foxA3 expression and an increased liver bud ( 88/93) as well as increased liver size ( 68/75) compared to wild-type siblings. […] Both cyclinD1 and cmyc were co-regulated by wnt and prostaglandin during development which may indicate that PGE2 exerts its effects on stem cells through enhanced cell cycling and proliferation.
as §1

The subject of a further experiment is β-catenin. Kind of experiment: partial hepatectomy in wild-type and APCMin/+ mice (IHC, western blot, BrdU). The text has this:
Here, APC mutation caused increased total and nuclear β-catenin levels, particularly in the periportal region. […] These findings were confirmed by western blot. β-catenin may cause increased cell proliferation through its target cyclin D1.
Additionally, the present invention provides the first example that the activation of wnt/β-catenin signaling can enhance the rate of liver regeneration. […] Furthermore, the regeneratice advantage is evolutionarily conserved following hepatectomy in APCMin/+ mice. (Murine liver resections were performed as described in Green & Puder, 16 J. Investigational Surgery 99-102 (2003). Thus, the present invention provides for the manipulation of the wnt/β-catenin pathway as a way to enhance liver regeneration in patients, either after liver resection or during recovery from acute liver failure induced by toxins such as acetaminophen.
(A western blot detects proteins with antibodies after separation by electrophoresis.)

The next experiment concerns liver tumor. The experiment in a line: zebrafish DMBA liver tumor model, ultrasound biomicroscopy. The text has this:
Although zebrafish are a valuable vertebrate model to study carcinogenesis, noninvasive imaging remains challenging because adult fish are not transparent. Tumors can be readily detected in vivo, however, using high-resolution microscopic ultrasound. This technique facilitates tissue perfusion calculations, cellular aspirates, tumor progression analysis, and responses to treatment. Ultrasound biomicroscopy allows longitudinal studies of tumor development and real-time assessment of therapeutic effects in the zebrafish model. The visualization techniques employed herein are described by Goessling et al., 4(7) Nature Methods 551-53 (2007). […] Tumor occurrence was monitored over about five months. Tumors were identified by ultrasound biomicroscopy. The cancerous fish were then treated with indomethacin for twelve hours over night, every three days for one month, and the tumors visualized as described. Goessling et al., 2007. […] After one month of drug treatment, the fish appeared healthy, but were sacrificed to confirm the presence of cancer by histology. […] In another experiment, detailed in FIG. 10B and FIG. 10C, fish were treated every week for tumor prevention. Here, treatment with the carcinogen led to liver tumors in wild-type fish, and to twice as many tumors in APC+/− mutant fish.

As for `COc1ccc2c(c1)c(CC(=O)O)c(C)n2C(=O)c1ccc(Cl)cc1` [indomethacin], the “wnt activity in the developing brain, liver and gut” value in the experiment with wnt activity is given as “diminished wnt activity”; with wnt activity (listed as indomethicin), “virtual absence of wnt signaling”. For the same compound, in the experiment with wnt activity (indomethacin 10 μM), the “wnt activity abolished in the AGM and GFP expression markedly decreased globally (# altered/# scored)” value is recorded as 72/87. The “effects of wnt8/dkk1 induction on runx1, cmyb, flk1, ephB2 expression (qPCR)” value in experiment [1] (indomethacin added to wnt8, dmPGE2 added to dkk1) is on record as “could be modified”. Besides, in experiment [1] (wnt8 heat shock at ten somites, then 10 μM, 16-36 hpf), the “HSC formation reduced to or below wild-type levels after wnt8 induction (# altered/# scored)” value is 43/46. Moreover, the “decrease in liver size (# altered/# scored)” value in experiment [2] (APC+/− embryos) is reported as 61/67. For the same compound, the “decrease in foxA3 positive progenitor cells (# altered/# scored)” value in experiment [2] (APC+/− embryos, 48 hpf) is listed as 33/39. The “decreased foxA3 expression (# altered/# scored)” value in experiment [2] (wild-type embryos) is 67/71. The “smaller liver, lfabp expression (# altered/# scored)” value in experiment [2] (wild-type embryos, 72 h.p.f.) was 51/56. Moreover, the “liver size / liver development compared to controls” value in experiment [2] (zebrafish embryos, by 72 hours post-fertilization) was “marked reduction in liver size”. The β-catenin levels result in the experiment on β-catenin (2.5 mg/kg bid sq, both genotypes) is “decreased β-catenin levels significantly”. Further, the “Cyclin D1 levels and cell proliferation (BrdU incorporation)” value in the experiment on β-catenin (APCMin/+ mice) is reported as “markedly diminished”. In the experiment on β-catenin (wild-type and APC+/− mice, confirmed by western blot), the “P-GSK3b (serine 9), IHC” value is given as “decreased amounts”. The “solid portion of the tumor, ultrasound” value in the experiment on liver tumor (after six treatments) was “decreased in size”. For the same compound, the “tumor size, ultrasound” value with liver tumor (after ten treatments) is listed as “shrunk substantially”; with liver tumor (after three treatments (12 h overnight every three days)), “tumor size increased”. Further, in the experiment with liver tumor (weekly treatment, wild-type and especially APC+/− fish), the “liver tumor formation (prevention)” value is “decreased tumor formation”.

The values are drawn from US10736906B2, “Method to enhance tissue regeneration” (CHILDREN'S MEDICAL CENTER CORPORATION, priority 2006, dated 2020).
